Measurements published in patent publication US4578380A, “5H-[1]benzopyrano[2,3-d]pyrimidine derivatives useful for controlling lesions of the gastric and duodenal mucous membranes” (Warner-Lambert Company, priority 1983, dated 1986).

Columns and labels:
[1] = test system: Indomethacin-Induced Ulcer; experiment: Indomethacin-Induced Ulcer; format: in vivo, male rats (Sprague Dawley SIV 50); conditions: rat
Description: 1. Indomethacin-Induced Ulcer Test animals were male rats (Sprague Dawley SIV 50) weighing between 150-200 g. The animals were kept fasting 24 hours before starting the test, drinking water being available ad libitum. The animals were alloted to three groups, each group comprising ten rats. […] Five hours following administration the animals were killed with CO2 gas, the stomachs removed and opened along the greater curvature. After measuring the pH value the stomach was tested for ulcerations under a stereo magnifying glass. The method described by Chaumontet, et al. Arzneimittelforschung/Drug Research 28 (II) pp 2119-2121 (1978) was used to rate the ulcerations and calculate the ulcer index (UI). The effect of the substances was rendered as the percentage inhibition of the ulcers caused by indomethacin in comparison to the untreated reference group.

[2] = test system: Cold-Stress Ulcer; experiment: Cold-Stress Ulcer; format: in vivo, male rats (Sprague Dawley SIV 50); conditions: rat
Description: 2. Cold-Stress Ulcer Test animals were male rats (Sprague Dawley SIV 50) weighing between 110 and 150 g. The animals were kept fasting 24 hours before starting the test, drinking water being available ad libitum. […] Immediately after administration of the substances the animals were anesthetized with […] on their backs, fixed with adhesive tapes to wooden boards. Thus rendered immobile the animals were put into a permanently lit room, ambient temperature +15° C., relative humidity 50-60%, for 14 hours. After this time of exposure the rats were killed with CO2, the stomachs removed and opened along the greater curvature. After measuring the pH value the gastric mucosa was tested for ulcerations under a stereo magnifying glass. The ulcerations were rated and the ulcer index (UI) calculated as described for test 1, the effect of the substances being expressed as the percentage inhibition of the ulcer formation in comparison to the untreated control group.

[3] = test system: Gastric Acid Secretion; experiment: Test for the Inhibition of the Gastric Acid Secretion According to Ghosh and Schild; format: in vivo, male rats (Sprague Dawley SIV 50); conditions: rat
Description: 3. Test for the Inhibition of the Gastric Acid Secretion According to Ghosh and Schild (Brit. J. Pharmacol. 13 pp 54-61 (1958) The test animals were male rats (Sprague Dawley SIV 50) weighing between 300-450 g. The animals were kept fasting 24 hours before starting the test, water being available ad libitum. The animals were anesthetized with 1.25 g/kg urethane IP. Trachea, vena jugularis, arteria carotis, and oesophagus were exposed, and a fistula placed at the pylorus. Via an oesophagus tube the stomach was perfused with 1/4000 N NaOH at a flow rate of 3 ml/min. By means of the NaOH perfusion the pH of the gastric juice was adjusted to about pH 7 and continuously measured with a measuring electrode. Via the vena jugularis the acid-stimulating substance (carbachol 0.25 μg/kg/min or pentagastrin 1 μg/kg/min) was infused.

[4] = test system: gastric mucous membrane; conditions: cited from earlier work
[5] = 125 mg/kg (dose column: i.g.; method: duodenal catheter)
[6] = 250 mg/kg (dose column: i.g.; method: duodenal catheter)

Structure (SMILES) | Protective Action in %, "Indomethacin" ulcer model ([1]; 125 mg/kg i.g.) | Protective Action in %, "Indomethacin" ulcer model ([1]; 250 mg/kg i.g.) | Protective Action in %, "Stress" ulcer model ([2]; 125 mg/kg i.g.) | Antisecretion (Gosh + Schild Model) [3, 5] | Antisecretion (Gosh + Schild Model) [3, 6] | other results
CN/C(=N/CCSCc1nc[nH]c1C)NC#N [Cimetidine, reference compound] | – | – | – | – | – | Protective Action in %, "Indomethacin" ulcer model ([1]; 100 mg/kg i.g.): 80%; Protective Action in %, "Indomethacin" ulcer model ([1]; 200 mg/kg i.g.): 89%; Protective Action in %, "Indomethacin" ulcer model ([1]; 3 × 100 mg/kg i.g.): 39%; Protective Action in %, "Stress" ulcer model ([2]; 100 mg/kg i.g.): 53%; Protective Action in %, "Stress" ulcer model ([2]; 200 mg/kg i.g.): 54%; Antisecretion (Gosh + Schild Model): pH reached ([3]; 5 mg/kg i.v., after 35 min): 7.9 pH; Antisecretion (Gosh + Schild Model): time after which pH 7.9 was reached ([3]; 5 mg/kg i.v.): 35 min; undesired side effects ([4]; general statement in therapy): undesired CNS and other side effects; changes of the gastric mucous membrane / relapse ulcers ([4]; long-term treatment, following discontinuation): changes of the gastric mucous membrane found under long-term treatment
Cc1ccc(-c2nc3c(c(SCCCN(C)C)n2)Cc2ccccc2O3)cc1 [Compound (16)] | 83% | 99.5% | 72% | No effect | No effect | –
Cc1ccc(-c2nc3c(c(SCCCN4CCOCC4)n2)Cc2ccccc2O3)cc1 [Compound (26), 2-(4-methylphenyl)-4-(3-morpholinopropylthio)-5H-[1]benzopyrano[2,3-d]pyrimidine] | – | 50% | – | – | No effect | –
CN(C)CCCSc1nc(-c2ccccc2)nc2c1Cc1ccccc1O2 [Compound (1), 4-(3-dimethylaminopropylthio)-2-phenyl-5H-[1]benzopyrano[2,3-d]pyrimidine] | 88% | 95% | 70% | No effect | No effect | Protective Action in %, "Stress" ulcer model ([2]; 250 mg/kg i.g.): 86%
CNCCCSc1nc(-c2ccc(C)cc2)nc2c1Cc1ccccc1O2 [Compound (27a), 4-(3-methylaminopropylthio)-2-(4-methylphenyl)-5H-[1]benzopyrano[2,3-d]pyrimidine] | – | 94% | – | – | No effect | –
